Results as given in article PMC9117146, “Immunogenicity and therapeutic targeting of a public neoantigen derived from mutated PIK3CA” (Nature Medicine, 2022).
No end group written: not given here. *: point of attachment. 5FAM = O=C1OC2(c3ccc(O)cc3Oc3cc(O)ccc32)c2ccc(C(=O)*)cc21

What was measured:
[1] = test system: peptide-pulsed HLA-A*03:01+ target cells; test: Intracellular TNFα of TCR-transduced T cells with peptide-pulsed HLA-A*03:01+ targets; type: cell-based
[2] = target: HLA-A*03:01 (heavy chain with β2-microglobulin) (human); test: fluorescence polarisation; fluorescence anisotropy; dissociation of fluorescein-labeled peptide from 100 nM purified peptide/HLA-A*03:01 complex with 100 μM unlabeled peptide; 37 °C; 20 mM NaH2PO4, 75 mM NaCl, pH 7.4; t1/2 = 0.693/koff of the slowest rate
HLA-A*03:02 = HLA-A*03:02 (Homo sapiens, UniProt P04439, E176V/L180Q); test: Differential scanning fluorimetry, peptide/HLA complex; type: binding; details: DSF, SYPRO Orange, 15 μM protein, HBS-EP pH 7.4, representative melt curve (n=3 technical replicates)

Row | t1/2 of the peptide/HLA complex [2] | Molecule | also measured
1 |  | IVFMGWTTK [peptide derived from transmembrane protein 87B (TM87B), position 407-415] | activation of T cells by peptide (in words) [1]: failed to activate TCR4-transduced T cells
2 | 5.5 h | fluorescein-labeled pMut derivative (P5 Gly substituted with a 5-carboxyfluorescein-modified lysine) (peptide) | 
3 |  | AHHGGWTTK [pWT, wild-type PI3Kα counterpart peptide] | Tm (melting temperature of peptide/HLA complex) (HLA-A*03:02): 38.7 oC
4 | 0.078 h | AHHGK(5FAM)WTTK (also: 5-carboxyfluorescein-modified Lys at P5 (replacing Gly)) [fluorescein-labeled pWT derivative (P5 Gly substituted with a 5-carboxyfluorescein-modified lysine)] | 
